# In patent US20250340538A1, “IMIDAZOLONE DERIVATIVES AS INHIBITORS OF PROTEIN KINASES IN PARTICULAR DYRK1A, CLK1 AND/OR CLK4” (PERHA PHARMACEUTICALS, priority 2021, published 2025):
# “And” between values parts separate entries of the source, which are not always exact repeats. Equal values may be shown once. Read-outs that look alike come from different tables or passages of the source.
# How the values were obtained:
# Type in all cases: biochemical
# DYRK1A = biological target: T1, DYRK1A (Homo sapiens, UniProt Q13627); assay: Radiometric protein kinase assay (33PanQinase Activity Assay), DYRK1A; conditions: for Selectivity Class DYRK1A vs. CLK1: ratio of IC50 on CLK1 over IC50 on DYRK1A; for Selectivity Class DYRK1A vs. DYRK1B: ratio of IC50 on DYRK1B over IC50 on DYRK1A
# T1 construct: GST-fusion or His-tag (not specified per kinase); purchased ProQinase GmbH; host or cells: Sf9 insect cells or E. coli (not specified per kinase)
# In short: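 Recombinant human kinase, expressed in Sf9 or E. coli, in a radiometric [γ-33P]-ATP assay at 30 °C for 60 min. Compounds tested at 10 concentrations from 10 μM to 30 nM, 1% DMSO final. 33Pi incorporation measured by scintillation counting; IC50 from dose-response curves.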
# DYRK3 = biological target: T2, DYRK3 (Homo sapiens, UniProt O43781); assay: Radiometric protein kinase assay (33PanQinase Activity Assay), DYRK3; conditions: read-out: IC50 on DYRK3 (most potent DYRK3 inhibitors)
# T2 construct: GST-fusion or His-tag (not specified per kinase); purchased ProQinase GmbH; host or cells: Sf9 insect cells or E. coli (not specified per kinase)
# T2 sequence (O43781 1-588): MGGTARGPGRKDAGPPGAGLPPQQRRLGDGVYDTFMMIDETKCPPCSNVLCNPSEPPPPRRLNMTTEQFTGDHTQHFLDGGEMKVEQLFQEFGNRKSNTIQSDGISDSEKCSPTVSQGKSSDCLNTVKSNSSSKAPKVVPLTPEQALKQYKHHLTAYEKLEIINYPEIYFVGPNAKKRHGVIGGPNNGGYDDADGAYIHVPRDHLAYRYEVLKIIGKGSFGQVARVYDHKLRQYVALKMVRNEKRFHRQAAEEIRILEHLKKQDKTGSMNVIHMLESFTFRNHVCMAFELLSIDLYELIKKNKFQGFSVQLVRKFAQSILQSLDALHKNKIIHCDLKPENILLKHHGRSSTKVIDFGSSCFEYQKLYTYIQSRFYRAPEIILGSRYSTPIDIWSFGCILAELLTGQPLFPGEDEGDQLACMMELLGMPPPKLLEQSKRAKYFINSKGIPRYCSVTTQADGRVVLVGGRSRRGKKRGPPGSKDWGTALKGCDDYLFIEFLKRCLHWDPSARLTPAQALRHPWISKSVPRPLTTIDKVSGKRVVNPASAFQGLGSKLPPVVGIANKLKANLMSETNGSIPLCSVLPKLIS
# Experimental: (§1) Assays were performed by ProQinase GmbH (Engesserstr. 4, D-79108 Freiburg, Germany. www.proqinase.com). The IC50 profile of all compounds was determined using 12 protein kinases (CDK2/cyclin E, CK1ε, CLK1, 2, 3, 4, DYRK1A, 1B, 2, 3, 4, GSK3β).
# (§2) The compounds were provided as […] in 100% DMSO. Prior to testing, the 1 μM stock solutions were subjected to a serial, semi-logarithmic dilution using 100% DMSO as a solvent. […] In the process, 90 μl H2O were added to each well of each compound dilution plate. To minimize potential precipitation, the H2O was added to each plate only a few minutes before the transfer of the compound solutions into the assay plates. The plate was shaken thoroughly, resulting in a compound dilution plate/10% DMSO.
# (§3) For the assays (see below), 5 μL solution from each well of the compound dilution plates/10% DMSO were transferred into the assay plates. The final volume of the assay was 50 μL. All compounds were tested at 10 final assay concentrations in the range from 10 μM to 30 nM. The final DMSO concentration in the reaction cocktails was 1% in all cases.
# (§4) All protein kinases provided by ProQinase were expressed in Sf9 insect cells or in E. coli as recombinant GST-fusion proteins or His-tagged proteins, either as full-length or enzymatically active fragments. All kinases were produced from human cDNAs and purified by either GSH-affinity chromatography or immobilized metal. Affinity tags were removed from a number of kinases during purification. The purity of the protein kinases was examined by SDS-PAGE/Coomassie staining, the identity was checked by mass spectroscopy.
# (§5) A radiometric protein kinase assay (33PanQinase® Activity Assay) was used for measuring the kinase activity of the 12 protein kinases. All kinase assays were performed in 96-well FlashPlates™ from PerkinElmer (Boston, MA, USA) in a 50 μL reaction volume. The reaction cocktail was pipetted in four steps in the following order: • 25 μL of assay buffer (standard buffer/[γ-^33P]-ATP), • 10 μL of ATP solution (in H2O), • 5 μL of test compound (in 10% DMSO), • 10 μL of enzyme/substrate mixture.
# (§6) The reaction cocktails were incubated at 30° C. for 60 minutes. The reaction was stopped with 50 μL of 2% (v/v) H3PO4, plates were aspirated and washed two times with 200 μL 0.9% (w/v) NaCl. Incorporation of ^33Pi was determined with a microplate scintillation counter (Microbeta, Wallac). The IC50 values for all compounds were calculated from the dose response curves
# (§7) As a parameter for assay quality, the Z′-factor (Zhang et al., J. Biomol. Screen. 2: 67-73, 1999) for the low and high controls of each assay plate (n=8) was used. ProQinase's criterion for repetition of an assay plate is a Z′-factor below 0.4 (Iversen et al., J. Biomol. Screen. 3: 247-252, 2006).
# CLK2 = biological target: T3, CLK2 (Homo sapiens, UniProt P49760); assay: Radiometric protein kinase assay (33PanQinase Activity Assay), CLK2; conditions: read-out: IC50 on CLK2 (most potent CLK2 inhibitors)
# T3 construct: GST-fusion or His-tag (not specified per kinase); purchased ProQinase GmbH; host or cells: Sf9 insect cells or E. coli (not specified per kinase)
# Experimental: as §1, §2, §3, §4, §5, §6, §7
# CLK1 = biological target: T4, CLK1 (Homo sapiens, UniProt P49759); assay: Radiometric protein kinase assay (33PanQinase Activity Assay), CLK1; conditions: read-out: Potency Class CLK1
# T4 construct: GST-fusion or His-tag (not specified per kinase); purchased ProQinase GmbH; host or cells: Sf9 insect cells or E. coli (not specified per kinase)
# In short: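 Recombinant human kinases (GST- or His-tagged, full-length or active fragments, from Sf9 or E. coli) were run in the radiometric 33PanQinase assay with [γ-33P]-ATP. Compounds were tested at 10 concentrations from 10 μM to 30 nM in 1% DMSO, incubated 60 min at 30 °C, and IC50 derived from dose-response curves.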
# CLK4 = biological target: T5, CLK4 (Homo sapiens, UniProt Q9HAZ1); assay: Radiometric protein kinase assay (33PanQinase Activity Assay), CLK4; conditions: read-out: IC50 on CLK4 (most potent CLK4 inhibitors)
# T5 construct: GST-fusion or His-tag (not specified per kinase); purchased ProQinase GmbH; host or cells: Sf9 insect cells or E. coli (not specified per kinase)
# Experimental: as §1, §2, §3, §4, §5, §6, §7
# DYRK2 = biological target: T6, DYRK2 (Homo sapiens, UniProt Q92630); assay: Radiometric protein kinase assay (33PanQinase Activity Assay), DYRK2; conditions: read-out: IC50 on DYRK2 (most potent DYRK2 inhibitors)
# T6 construct: GST-fusion or His-tag (not specified per kinase); purchased ProQinase GmbH; host or cells: Sf9 insect cells or E. coli (not specified per kinase)
# T6 sequence (Q92630 1-601): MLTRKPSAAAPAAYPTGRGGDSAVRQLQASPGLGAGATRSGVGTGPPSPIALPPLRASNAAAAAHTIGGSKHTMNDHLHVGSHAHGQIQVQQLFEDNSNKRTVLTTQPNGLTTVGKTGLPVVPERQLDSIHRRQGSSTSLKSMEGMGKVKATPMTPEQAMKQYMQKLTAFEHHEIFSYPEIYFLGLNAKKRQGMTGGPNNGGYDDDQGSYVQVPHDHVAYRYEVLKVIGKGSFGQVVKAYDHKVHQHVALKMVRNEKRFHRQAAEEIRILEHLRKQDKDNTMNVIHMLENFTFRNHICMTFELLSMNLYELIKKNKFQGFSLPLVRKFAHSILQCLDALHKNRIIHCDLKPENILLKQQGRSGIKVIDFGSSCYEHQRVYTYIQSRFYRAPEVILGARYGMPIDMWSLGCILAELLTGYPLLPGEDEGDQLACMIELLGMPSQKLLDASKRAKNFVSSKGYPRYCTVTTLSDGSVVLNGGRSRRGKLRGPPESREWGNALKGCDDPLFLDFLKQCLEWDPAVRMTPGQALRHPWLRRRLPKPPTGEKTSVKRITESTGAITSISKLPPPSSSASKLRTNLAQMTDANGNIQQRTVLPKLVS
# Experimental: as §1, §2, §3, §4, §5, §6, §7
# [1] = class by IC50 on DYRK1A, from dose-response curves, read-out: Potency Class DYRK1A
# [2] = class by IC50 on CLK1, from dose-response curves
# [3] = IC50 class A to E, read-out: Potency Class DYRK1A
# [4] = read-out: IC50 on DYRK1A (most potent DYRK1A inhibitors)
# T4 sequence (P49759 whole entry, the tested form may be a part): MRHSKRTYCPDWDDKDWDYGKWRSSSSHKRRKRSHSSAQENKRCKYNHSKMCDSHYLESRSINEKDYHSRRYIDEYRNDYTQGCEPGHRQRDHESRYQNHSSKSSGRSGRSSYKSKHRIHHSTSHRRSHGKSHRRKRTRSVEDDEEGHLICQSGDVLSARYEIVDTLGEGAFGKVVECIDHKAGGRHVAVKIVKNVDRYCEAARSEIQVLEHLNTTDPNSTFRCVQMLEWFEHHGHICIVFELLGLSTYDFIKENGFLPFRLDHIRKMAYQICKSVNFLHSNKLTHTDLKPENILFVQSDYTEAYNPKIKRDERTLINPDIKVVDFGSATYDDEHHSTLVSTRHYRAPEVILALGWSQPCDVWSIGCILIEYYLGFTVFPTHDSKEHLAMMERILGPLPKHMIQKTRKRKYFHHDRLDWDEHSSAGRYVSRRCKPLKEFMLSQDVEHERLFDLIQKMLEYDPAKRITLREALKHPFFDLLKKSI
# T3 sequence (P49760 whole entry, the tested form may be a part): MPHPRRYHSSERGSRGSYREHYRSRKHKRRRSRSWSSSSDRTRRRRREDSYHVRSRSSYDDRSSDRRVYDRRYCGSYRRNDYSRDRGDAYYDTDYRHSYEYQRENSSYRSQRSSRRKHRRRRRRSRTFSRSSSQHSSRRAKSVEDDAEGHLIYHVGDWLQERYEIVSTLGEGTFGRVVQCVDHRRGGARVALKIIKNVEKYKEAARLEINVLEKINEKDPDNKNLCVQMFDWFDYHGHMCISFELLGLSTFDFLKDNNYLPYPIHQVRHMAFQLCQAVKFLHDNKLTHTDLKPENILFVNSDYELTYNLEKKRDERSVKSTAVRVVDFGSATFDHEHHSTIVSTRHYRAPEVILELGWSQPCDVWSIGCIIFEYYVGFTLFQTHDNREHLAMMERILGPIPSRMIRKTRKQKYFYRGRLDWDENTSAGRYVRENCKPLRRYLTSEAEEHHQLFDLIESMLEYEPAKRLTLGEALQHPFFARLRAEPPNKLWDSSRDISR
# T5 sequence (Q9HAZ1 whole entry, the tested form may be a part): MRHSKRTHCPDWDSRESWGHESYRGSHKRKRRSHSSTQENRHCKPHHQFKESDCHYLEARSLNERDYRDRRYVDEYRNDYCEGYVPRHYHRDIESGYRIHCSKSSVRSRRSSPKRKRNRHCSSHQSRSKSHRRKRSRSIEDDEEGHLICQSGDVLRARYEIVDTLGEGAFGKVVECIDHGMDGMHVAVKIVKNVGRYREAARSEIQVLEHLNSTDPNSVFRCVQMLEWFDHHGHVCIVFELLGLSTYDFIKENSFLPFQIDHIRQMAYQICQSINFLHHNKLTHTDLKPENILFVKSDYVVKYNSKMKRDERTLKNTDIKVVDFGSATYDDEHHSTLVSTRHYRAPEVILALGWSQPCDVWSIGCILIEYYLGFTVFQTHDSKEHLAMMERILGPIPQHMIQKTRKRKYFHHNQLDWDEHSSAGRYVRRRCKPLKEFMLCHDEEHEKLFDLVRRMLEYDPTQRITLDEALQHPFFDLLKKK
IC50 (DYRK1A; [1]),Selectivity Class DYRK1A vs. CLK1 (DYRK1A),Selectivity Class DYRK1A vs. DYRK1B (DYRK1A),IC50 (DYRK3),IC50 (CLK2),IC50 (CLK1; [2]),IC50 (CLK4),IC50 (DYRK1A; [3]),IC50 (DYRK1A; [4]),IC50 (DYRK2),IC50 (CLK1; IC50 class A to E),SMILES
25 to 50 nM,III (ratio between 0.5 and 2 fold),III (ratio between 0.5 and 2 fold),≤ 250 nM,≤ 100 nM,25 to 50 nM,–,–,–,–,–,"O=C1NC(NC23CC4CC(CC(C4)C2)C3)=N/C1=C\c1ccc2cnccc2c1 [Compound 61, (4Z)-2-(1-adamantylamino)-4-(6-isoquinolylmethylene)-1H-imidazol-5-one]"
5 to 10 nM,II (ratio between 2 and 10 fold),II (ratio between 2 and 10 fold),≤ 250 nM,–,10 to 25 nM,≤ 10 nM,5 to 10 nM,≤ 10 nM,≤ 250 nM,10 to 25 nM,"O=C1NC(NC23CC4CC(CC2C4)C3)=N/C1=C\c1ccc2ncccc2c1 [Compound 48, (4Z)-2-(3-noradamantylamino)-4-(6-quinolylmethylene)-1H-imidazol-5-one]"
10 to 25 nM,II (ratio between 2 and 10 fold),II (ratio between 2 and 10 fold),–,≤ 100 nM,25 to 50 nM,–,–,–,–,–,"O=C1NC(NC23CC4CC(CC(C4)C2)C3)=N/C1=C\c1ccc2nccnc2c1 [Compound 17, (4Z)-2-(1-adamantylamino)-4-(quinoxalin-6-ylmethylene)-1H-imidazol-5-one]"
10 to 25 nM,II (ratio between 2 and 10 fold),III (ratio between 0.5 and 2 fold),≤ 250 nM,≤ 100 nM,10 to 25 nM,–,10 to 25 nM and 5 to 10 nM,≤ 10 nM,–,10 to 25 nM,"O=C1NC(NC23CC4CC(CC(C4)C2)C3)=N/C1=C\c1ccc2ncccc2c1 [Compound 49, (4Z)-2-(1-adamantylamino)-4-(6-quinolylmethylene)-1H-imidazol-5-one]"
> 50 nM,IV (ratio between 0.1 and 0.5 fold),II (ratio between 2 and 10 fold),–,–,10 to 25 nM,≤ 10 nM,> 50 nM,–,–,10 to 25 nM,"COC[C@H](NC1=N/C(=C\c2ccc3ncccc3n2)C(=O)N1)c1ccccc1 [Compound 71, (4Z)-2-[[(1R)-2-methoxy-1-phenyl-ethyl]amino]-4-(1,5-naphthyridin-2-ylmethylene)-1H-imidazol-5-one]"
> 50 nM,III (ratio between 0.5 and 2 fold),III (ratio between 0.5 and 2 fold),–,–,> 50 nM,–,–,–,–,–,"CN1C(=O)/C(=C/c2ccc3ncncc3c2)N=C1NC1CCCCC1 [Compound 88, (5Z)-2-(Cyclohexylamino)-3-methyl-5-(quinazolin-6-ylmethylene)imidazol-4-one]"
> 50 nM,III (ratio between 0.5 and 2 fold),II (ratio between 2 and 10 fold),–,–,> 50 nM,–,–,–,–,–,"COC[C@H](NC1=N/C(=C\c2ccc3nccnc3c2)C(=O)N1)c1ccccc1 [Compound 26, (4Z)-2-[[(1R)-2-methoxy-1-phenyl-ethyl]amino]-4-(quinoxalin-6-ylmethylene)-1H-imidazol-5-one]"
> 50 nM,IV (ratio between 0.1 and 0.5 fold),IV (ratio between 0.1 and 0.5 fold),≤ 250 nM,–,> 50 nM,–,–,–,≤ 250 nM,–,"CN1C(=O)/C(=C/c2ccc3cnccc3c2)N=C1NC1CCCCCC1 [Compound 87, (5Z)-2-(Cycloheptylamino)-3-methyl-5-(isoquinolin-6-ylmethylene)imidazol-4-one]"
> 50 nM,II (ratio between 2 and 10 fold),II (ratio between 2 and 10 fold),–,–,> 50 nM,–,–,–,–,–,"O=C1NC(Nc2ccccn2)=N/C1=C\c1ccc2nccnc2c1 [Compound 35, (4Z)-2-(2-pyridylamino)-4-(quinoxalin-6-ylmethylene)-1H-imidazol-5-one]"
> 50 nM,IV (ratio between 0.1 and 0.5 fold),III (ratio between 0.5 and 2 fold),–,–,> 50 nM,–,–,–,–,–,"Cc1cnc(CNC2=N/C(=C\c3ccc4ncccc4c3)C(=O)N2)cn1 [Compound 53, (4Z)-2-[(5-Methylpyrazin-2-yl)methylamino]-4-(6-quinolylmethylene)-1H-imidazol-5-one]"
